Marks after values point to notes of the source that are not given here.
Key:
Format in all cases: cell-based
[1] = test system: A. actinomycetemcomitans virulence genes; experiment: Virulence gene expression in multi-species biofilm (SYBR RT-qPCR)
Procedure: (§1) Biofilms are grown vertically on Calcium Deficient Hydroxyapatite (CAD-HA) disks (Hitemco Medical, Old Bethpage, USA) using the Amsterdam Active Adhesion model. Biofilms are allowed to establish during 24 h (37° C., 170 rpm) under microaerophilic conditions (6% O2, 7% CO2, 7% H2, 80% N2). After this 24 h, disks are rinsed 3 times a day for 3 minutes (RT, 250 rpm), for 3 consecutive days, by transferring the lid containing the disks to a new 24-well plate containing 2 mL/well of the appropriate substrate solution. As a negative control, PBS (pH 5.7) without substrate supplementation is used.
(§2) The virulence of the substrate-treated multi-species biofilms are evaluated by analyzing the relative expression of 33 genes that are recognized as being related to some form of virulence and from 4 periodontal pathogens.
(§3) Expression of bacterial virulence genes is analyzed through SYBR RT-qPCR and normalized for bacterial housekeeping gene expression. […] These effects are illustrated in Tables 6a and 6b:
(§4) Note, for Tables 6a and 6b, that fold changes in virulence gene expression are determined relative to the control condition through the 2^^-ΔΔCt method and are shown as the geometric mean (C.I.) (n = 3) of the 2^^-ΔΔ ^Ct values. All substrates are dissolved in PBS at a concentration of 1 M (upper part) or 1%(w/v) (lower part). Values between 0 and 1 represent relative downregulation, values >1 represent relative upregulation. […] NADG: N-acetyl-D-glucosamine; C.I.: 95% confidence interval.

[2] = test system: P. gingivalis virulence genes; experiment: as above; settings: relative to control, 2^-ΔΔCt, n = 3
Procedure: as §1, §2, §3, §4

[3] = test system: human oral keratinocytes (HOK-18A); experiment: Inflammatory mediator gene expression in keratinocytes exposed to substrate-treated biofilms (SYBR RT-qPCR); settings: relative to control, n = 3
Procedure: Cultures of immortalized human oral keratinocytes (HOK-18A) are grown. […] The IL-8 levels in the cellular supernatant are determined as well. RNA is converted to cDNA and relative expression of inflammatory mediator genes is determined as described above with respect to the cellular housekeeping gene β-actin.
In HOKs exposed to substrate-treated (substrate concentrations of […]) multi-species biofilms, there are mostly decreases in inflammatory mediator gene expression as measured via SYBR RT-qPCR, the results of which are detailed in Table 7:
Fold changes in inflammatory mediator gene expression from human oral keratinocytes (HOK-18A) exposed to substrate-treated multi-species biofilms are determined relatively to the control through the 2^^-ΔΔCt method and are shown as the geometric mean (C.I.) (n = 3) of the 2^^-ΔΔCt values. All substrates are dissolved in PBS at a concentration of 1 M (upper part) or 1%(w/v) (lower part). Values between 0 and 1 represent relative downregulation, values >1 represent relative upregulation.

[4] = test system: F. nucleatum virulence genes; experiment: Virulence gene expression in multi-species biofilm (SYBR RT-qPCR); settings: relative to control = 1, 2^-ΔΔCt, n = 3
Procedure: as §1, §2, §3
Note, for Table 6c, fold changes in virulence gene expression are determined relative to the control condition through the 2^^-ΔΔCt method and are shown as the geometric mean (C.I.) (n = 3) of the 2^^-ΔΔCt values. All substrates are dissolved in PBS at a concentration of 1 M (upper part) or 1%(w/v) (lower part). Values between 0 and 1 represent relative downregulation, values >1 represent relative upregulation. […] NADG: N-acetyl-D-glucosamine; C.I.: 95% confidence interval.

F. nucleatum = experiment: Multi-species biofilm composition, absolute abundance (Geq/mL); settings: repeated rinsing
Procedure: as §1
(§5) N-acetyl-D-glucosamine (NADG), α-D-lactose, D-(+)-trehalose and D-(+)-raffinose are selected to determine their effects on multi-species biofilm composition. […] decrease in absolute numbers in at least four of the pathogenic bacterial species tested in the assay, in comparison to the control, the results of which are described in Table 1 below. Note, NADG decreased absolute numbers of S. sobrinus. Absolute abundances of bacterial species are shown as mean ± SD (n = 3) logarithmic values of the genome equivalents per millilitre (log(Geq/mL)).

S. sanguinis = experiment: as above; settings: repeated rinsing
Procedure: as §1, §5

A. viscosus = experiment: as above; settings: for absolute abundance of A. viscosus (Av), mean ± SD log (Geq/mL): repeated rinsing
Procedure: as §1, §5

S. salivarius = experiment: as above; settings: repeated rinsing
Procedure: as §1, §5

S. mutans = experiment: as above; settings: repeated rinsing
Procedure: as §1, §5

V. parvula = experiment: as above; settings: for absolute abundance of V. parvula (VP), mean ± SD log (Geq/mL): repeated rinsing
Procedure: as §1, §5

[5] = lower part of Table 6a, substrate 1%(w/v), relative to control = 1
[6] = substrate 1 M, relative to control = 1, 2^-ΔΔCt, n = 3
[7] = HOK-18A exposed to biofilms treated with substrate 1% (w/v)
[8] = HOK-18A exposed to biofilms treated with substrate 1 M

SMILES: OC[C@H]1O[C@H](O[C@H]2O[C@H](CO)[C@@H](O)[C@H](O)[C@H]2O)[C@H](O)[C@@H](O)[C@@H]1O [D-trehalose, D-(+)-trehalose]
- fold change in aae expression, geometric mean (95% C.I.) [1, 5]: 0.95 (0.33-2.78) fold
- fold change in apaH expression, geometric mean (95% C.I.) [1, 5]: 0.64 (0.37-1.10) fold
- fold change in cdtB expression, geometric mean (95% C.I.) [1, 5]: 0.67 (0.51-0.89) fold
- fold change in emaA expression, geometric mean (95% C.I.) [1, 5]: 0.67 (0.49-0.90) fold
- fold change in flp expression, geometric mean (95% C.I.) [1, 5]: 0.48 (0.07-3.50) fold
- fold change in ltxA expression, geometric mean (95% C.I.) [1, 5]: 0.08 (0.01-0.73)^∗ fold
- fold change in omp29 expression, geometric mean (95% C.I.) [1, 5]: 0.51 (0.19-1.34)^∗ fold
- fold change in omp100 expression, geometric mean (95% C.I.) [1, 5]: 0.43 (0.26-0.72)^∗ fold
- fold change in orf859 expression, geometric mean (95% C.I.) [1, 5]: 1.04 (0.53-2.03) fold
- fold change in pgA expression, geometric mean (95% C.I.) [1, 5]: 0.91 (0.81-1.03) fold
- fold change in vapA expression, geometric mean (95% C.I.) [1, 5]: 1.02 (0.87-1.21) fold
- fold change in vppA expression, geometric mean (95% C.I.) [1, 5]: 0.48 (0.42-0.55)^∗ fold
- fold change in aae expression, geometric mean (95% C.I.) [1, 6]: 0.03 (0.01-0.15)^∗ fold
- fold change in apaH expression, geometric mean (95% C.I.) [1, 6]: 0.16 (0.04-0.56)^∗ fold
- fold change in cdtB expression, geometric mean (95% C.I.) [1, 6]: 0.08 (0.03-0.21)^∗ fold
- fold change in emaA expression, geometric mean (95% C.I.) [1, 6]: 0.11 (0.04-0.32)^∗ fold
- fold change in flp expression, geometric mean (95% C.I.) [1, 6]: 0.71 (0.30-1.67) fold
- fold change in ltxA expression, geometric mean (95% C.I.) [1, 6]: 0.01 (0.00-0.01)^∗ fold
- fold change in omp29 expression, geometric mean (95% C.I.) [1, 6]: 0.74 (0.18-3.00) fold
- fold change in omp100 expression, geometric mean (95% C.I.) [1, 6]: 0.09 (0.01-1.11)^∗ fold
- fold change in orf859 expression, geometric mean (95% C.I.) [1, 6]: 0.14 (0.02-0.87)^∗ fold
- fold change in pgA expression, geometric mean (95% C.I.) [1, 6]: 18.24 (5.89-56.51)^∗ fold
- fold change in vapA expression, geometric mean (95% C.I.) [1, 6]: 0.32 (0.08-1.26)^∗ fold
- fold change in vppA expression, geometric mean (95% C.I.) [1, 6]: 0.32 (0.01-4.50)^∗ fold
- fold change in pgA expression, geometric mean (95% C.I.) ([1]; substrate 1 M, relative to control = 1, 2^-ΔΔCt, n = 3, listed as D-(+)-trehalose): 18.2 fold
- fold change in fimA expression, geometric mean (95% C.I.) ([2]; substrate 1 % (w/v)): 1.58 (0.86-2.90) fold
- fold change in kgp expression, geometric mean (95% C.I.) ([2]; substrate 1 % (w/v)): 3.24 (1.63-6.44)^∗ fold
- fold change in partC expression, geometric mean (95% C.I.) ([2]; substrate 1 % (w/v)): 0.71 (0.37-1.35) fold
- fold change in rgpA expression, geometric mean (95% C.I.) ([2]; substrate 1 % (w/v)): 1.49 (0.69-3.22) fold
- fold change in kgp expression, geometric mean (95% C.I.) ([2]; substrate 1 % (w/v), listed as D-(+)-trehalose): approximately 3.2 fold
- fold change in fimA expression, geometric mean (95% C.I.) ([2]; substrate 1 M): 0.13 (0.02-0.96)^∗ fold
- fold change in kgp expression, geometric mean (95% C.I.) ([2]; substrate 1 M): <LOD
- fold change in partC expression, geometric mean (95% C.I.) ([2]; substrate 1 M): 0.03 (0.00-0.49)^∗ fold
- fold change in rgpA expression, geometric mean (95% C.I.) ([2]; substrate 1 M): 0.00 (0.00-0.02)^∗ fold
- fold change in IL-1β gene expression, geometric mean (C.I.) [3, 7]: 1.06 (0.55-2.06) fold
- fold change in IL-6 gene expression, geometric mean (C.I.) [3, 7]: 1.00 (0.46-2.17) fold
- fold change in IL-8 gene expression, geometric mean (C.I.) [3, 7]: 1.32 (0.89-1.94)^∗ fold
- fold change in MMP-8 gene expression, geometric mean (C.I.) [3, 7]: 0.66 (0.46-0.93) fold
- fold change in TNF-α gene expression, geometric mean (C.I.) [3, 7]: 0.94 (0.54-1.64) fold
- fold change in IL-1β gene expression, geometric mean (C.I.) [3, 8]: 0.79 (0.45-1.38) fold
- fold change in IL-6 gene expression, geometric mean (C.I.) [3, 8]: 1.27 (0.11-14.86) fold
- fold change in IL-8 gene expression, geometric mean (C.I.) [3, 8]: 0.22 (0.15-0.34)^∗ fold
- fold change in MMP-8 gene expression, geometric mean (C.I.) [3, 8]: 0.81 (0.68-0.95) fold
- fold change in TNF-α gene expression, geometric mean (C.I.) [3, 8]: 0.66 (0.41-1.06)^∗ fold
- fold change in ABC transp. perm. (ABC transporter permease) expression, geometric mean (95% C.I.) ([4]; substrate 1% (w/v)): 0.40 (0.15-1.03)^∗ fold
- fold change in EF-G expression, geometric mean (95% C.I.) ([4]; substrate 1% (w/v)): 0.12 (0.03-0.55)^∗ fold
- fold change in but. -coA transf. (butyrate-acetoacetate CoA-transferase) expression, geometric mean (95% C.I.) ([4]; substrate 1% (w/v)): 0.40 (0.05-3.27) fold
- fold change in hemin receptor expression, geometric mean (95% C.I.) ([4]; substrate 1% (w/v)): 0.16 (0.05-0.50)^∗ fold
- fold change in hemolysin expression, geometric mean (95% C.I.) ([4]; substrate 1% (w/v)): 0.65 (0.15-2.70) fold
- fold change in ompA expression, geometric mean (95% C.I.) ([4]; substrate 1% (w/v)): 0.84 (0.21-3.35) fold
- fold change in transposase expression, geometric mean (95% C.I.) ([4]; substrate 1% (w/v)): 1.02 (0.33-3.12) fold
- fold change in ABC transp. perm. (ABC transporter permease) expression, geometric mean (95% C.I.) ([4]; substrate 1 M): 32.18 (21.08-49.14)^∗ fold
- fold change in EF-G expression, geometric mean (95% C.I.) ([4]; substrate 1 M): 1.18 (0.46-3.02) fold
- fold change in but. -coA transf. (butyrate-acetoacetate CoA-transferase) expression, geometric mean (95% C.I.) ([4]; substrate 1 M): 4.28 (1.32-13.86)* fold
- fold change in hemin receptor expression, geometric mean (95% C.I.) ([4]; substrate 1 M): 41.19 (20.31-83.52)^∗ fold
- fold change in hemolysin expression, geometric mean (95% C.I.) ([4]; substrate 1 M): 12.15 (7.73-19.10)^∗ fold
- fold change in ompA expression, geometric mean (95% C.I.) ([4]; substrate 1 M): 1.23 (0.98-1.53) fold
- fold change in transposase expression, geometric mean (95% C.I.) ([4]; substrate 1 M): 106.44 (42.35-267.50)^∗ fold
- absolute abundance of F. nucleatum (Fn), mean ± SD log (Geq/mL) (F. nucleatum; substrate 1% (w/v)): 9.35 ± 0.20 log (Geq/mL)
- absolute abundance of F. nucleatum (Fn), mean ± SD log (Geq/mL) (F. nucleatum; substrate 1 M in PBS, n = 3): 6.51 ± 0.43^∗ log (Geq/mL)
- absolute abundance of S. sanguinis, mean ± SD log (Geq/mL) (S. sanguinis; substrate 1% (w/v)): 8.42 ± 0.43 log (Geq/mL)
- absolute abundance of S. sanguinis, mean ± SD log (Geq/mL) (S. sanguinis; substrate 1 M in PBS, n = 3): 6.43 ± 0.97 log (Geq/mL)
- absolute abundance of A. viscosus (Av), mean ± SD log (Geq/mL) (A. viscosus; substrate 1% (w/v)): 8.04 ± 0.28 log (Geq/mL)
- decrease in A. viscosus numbers in comparison to the control (A. viscosus; substrate 1 M): 1.9-2.5 log(Geq/mL)
- absolute abundance of A. viscosus (Av), mean ± SD log (Geq/mL) (A. viscosus; substrate 1 M in PBS, n = 3): 6.05 ± 1.12^∗ log (Geq/mL)
- absolute abundance of S. salivarius, mean ± SD log (Geq/mL) (S. salivarius; substrate 1% (w/v)): 2.65 ± 0.00 log (Geq/mL)
- absolute abundance of S. salivarius, mean ± SD log (Geq/mL) (S. salivarius; substrate 1 M in PBS, n = 3): 6.19 ± 0.07^∗ log (Geq/mL)
- absolute abundance of S. mutans, mean ± SD log (Geq/mL) (S. mutans; substrate 1% (w/v)): 7.55 ± 0.25 log (Geq/mL)
- absolute abundance of S. mutans, mean ± SD log (Geq/mL) (S. mutans; substrate 1 M in PBS, n = 3): 8.50 ± 0.29^∗ log (Geq/mL)
- absolute abundance of V. parvula (VP), mean ± SD log (Geq/mL) (V. parvula; substrate 1% (w/v)): 10.07 ± 0.28 log (Geq/mL)
- reduction of V. parvula numbers in comparison to the control (V. parvula; substrate 1 M): ~ 0.7 log(Geq/mL)
- absolute abundance of V. parvula (VP), mean ± SD log (Geq/mL) (V. parvula; substrate 1 M in PBS, n = 3): 9.44 ± 0.25^∗ log (Geq/mL)

Reference: patent US20230346670A1, “Prebiotic Oral Care Compositions and Methods” (Colgate-Palmolive Company, priority 2020, published 2023)
